# According to patent US6858624B2, “Aryl fused azapolycyclic compounds” (Pfizer, Inc., priority 2001, dated 2005):
# Columns and labels:
# [1] = biotransformation in liver microsomes; format: in vitro ADME; details: bicarbonate buffer, CO2 atmosphere, UDPGA
# Excerpt: A number of studies have been conducted on precursor compounds to those of formula I of the present invention. In particular, studies have been carried out on 5,8,14-triazatetracyclo[10.3.1.0^2,110.0^4,9]-hexadeca-2(11),3,5,7,9-pentaene: [drawing 12] Means of the synthesis of this compound may be found International Patent Publication No. WO 99/35131 and WO 01/62736.
# [2] = in vivo metabolism study, human (circulating and excreted metabolites)
# Excerpt: (§1) The compound 5,8,14-triazatetracyclo[10.3.1.0^2,110.0^4,9]-hexadeca-2(11),3,5,7,9-pentaene has also been studied in vivo (rat, monkey, mouse, and human). Metabolite structures are described in Scheme I below.
# (§2) The N-carbamoyl glucuronide represents an unusual, albeit not unprecedented metabolite that arises via association of carbon dioxide with the secondary amine followed by glucuronidation. […] The only excreted metabolites in human were the hydroxyquinoxaline metabolite (2.9% of dose): [drawing 17] and N-carbamoyl glucuronide (3.6% of dose).
# [3] = in vivo metabolism study, preclinical species
# Excerpt: as §1, §2
smiles,measurement,setting,value
"c1cnc2cc3c(cc2n1)C1CNCC3C1 [5,8,14-triazatetracyclo[10.3.1.0^2,110.0^4,9]-hexadeca-2(11),3,5,7,9-pentaene]",biotransformation in liver microsomes,[1],underwent N-carbamoyl glucuronidation
O=C(O)C1OC(OC(=O)N2CC3CC(C2)c2cc4nccnc4cc23)C(O)C(O)C1O (stereo not drawn) [N-carbamoyl glucuronide],metabolites in human circulation,[2],Metabolites in human circulation included
same,excreted metabolite in human,"[2]; after 5,8,14-triazatetracyclo[10.3.1.0^2,110.0^4,9]-hexadeca-2(11),3,5,7,9-pentaene",3.6 % of dose
same,metabolite present in rat and monkey,[3],present in rat and monkey
O=CN1CC2CC(C1)c1cc3nccnc3cc12 [N-formyl],metabolites in human circulation,[2],Metabolites in human circulation included
Oc1cnc2cc3c(cc2n1)C1CNCC3C1 (stereo not drawn) [hydroxyquinoxaline metabolite],excreted metabolite in human,[2]; in vivo,2.9 % of dose
